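Following 48 hours of exposure in 96-well plates, responses at five concentrations were used to interpolate endpoints linearly. GI50 marks 50% less growth.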 The source made the active and inactive calls. No stated cut-off is given here; in the data, active = GI50 up to about 1.1 µM and inactive = higher.
What was measured:
Assay in all cases: NCI-60 cell line screen, 48 h
U-251 = system: U-251
RPMI-8226 = system: RPMI-8226
A549 = system: A549
SN12C = system: SN12C
NCI-H460 = system: NCI-H460
LOX IMVI = system: LOX IMVI
TK-10 = system: TK-10
SW-620 = system: SW-620
SK-MEL-28 = system: SK-MEL-28
OVCAR-4 = system: OVCAR-4
RXF 393 = system: RXF 393
DMS-114 = system: DMS-114
OVCAR-5 = system: OVCAR-5
NCI-H23 = system: NCI-H23
SR = system: SR
LXFL 529 = system: LXFL 529
DMS-273 = system: DMS-273
RXF 631 = system: RXF 631
SNB-75 = system: SNB-75
UACC-257 = system: UACC-257
NCI-H226 = system: NCI-H226
SK-OV-3 = system: SK-OV-3
SF-295 = system: SF-295
HCT-15 = system: HCT-15
SK-MEL-2 = system: SK-MEL-2
MOLT-4 = system: MOLT-4
NCI-H522 = system: NCI-H522
DLD-1 = system: DLD-1
KM12 = system: KM12
CAKI-1 = system: CAKI-1
SF-268 = system: SF-268
HT-29 = system: HT-29
XF498 = system: XF498
HCT-116 = system: HCT-116
CCRF-CEM = system: CCRF-CEM
ACHN = system: ACHN
HOP-18 = system: HOP-18
SK-MEL-5 = system: SK-MEL-5
A498 = system: A498
Malme-3M = system: Malme-3M
SNB-19 = system: SNB-19
HL-60 = system: HL-60
COLO 205 = system: COLO 205
HOP-92 = system: HOP-92
HCC 2998 = system: HCC 2998
SNB-78 = system: SNB-78
M14 = system: M14
786-0 = system: 786-0
IGROV-1 = system: IGROV-1
M19-MEL = system: M19-MEL
HOP-62 = system: HOP-62
K562 = system: K562
SF-539 = system: SF-539
UO-31 = system: UO-31
UACC-62 = system: UACC-62

CN1NC(c2ccccc2)=C(C#N)C(=O)CC1c1ccc(F)cc1 (stereo not given)
GI50 (U-251): > 100 µM (inactive) | GI50 (RPMI-8226): > 100 µM (inactive) | GI50 (A549): > 100 µM (inactive) | GI50 (SN12C): > 100 µM (inactive) | GI50 (NCI-H460): > 100 µM (inactive) | GI50 (LOX IMVI): > 100 µM (inactive) | GI50 (TK-10): > 100 µM (inactive) | GI50 (SW-620): > 100 µM (inactive) | GI50 (SK-MEL-28): > 100 µM (inactive) | GI50 (OVCAR-4): > 100 µM (inactive) | GI50 (RXF 393): > 100 µM (inactive) | GI50 (DMS-114): > 100 µM (inactive) | GI50 (OVCAR-5): > 100 µM (inactive) | GI50 (NCI-H23): > 100 µM (inactive) | GI50 (SR): > 100 µM (inactive) | GI50 (LXFL 529): > 100 µM (inactive) | GI50 (DMS-273): > 100 µM (inactive) | GI50 (RXF 631): > 100 µM (inactive) | GI50 (SNB-75): 41.3 µM (inactive) | GI50 (UACC-257): > 100 µM (inactive) | GI50 (NCI-H226): > 100 µM (inactive) | GI50 (SK-OV-3): > 100 µM (inactive) | GI50 (SF-295): > 100 µM (inactive) | GI50 (HCT-15): > 100 µM | GI50 (SK-MEL-2): > 100 µM (inactive) | GI50 (MOLT-4): > 100 µM (inactive) | GI50 (NCI-H522): 62.4 µM (inactive) | GI50 (DLD-1): > 100 µM (inactive) | GI50 (KM12): > 100 µM (inactive) | GI50 (CAKI-1): > 100 µM (inactive) | GI50 (SF-268): > 100 µM (inactive) | GI50 (HT-29): > 100 µM (inactive) | GI50 (XF498): > 100 µM (inactive) | GI50 (HCT-116): > 100 µM (inactive) | GI50 (CCRF-CEM): > 100 µM (inactive) | GI50 (ACHN): > 100 µM (inactive) | GI50 (HOP-18): > 100 µM (inactive) | GI50 (SK-MEL-5): > 100 µM (inactive) | GI50 (A498): > 100 µM (inactive) | GI50 (Malme-3M): > 100 µM (inactive) | GI50 (SNB-19): > 100 µM (inactive) | GI50 (HL-60): > 100 µM (inactive) | GI50 (COLO 205): > 100 µM (inactive) | GI50 (HOP-92): > 100 µM (inactive) | GI50 (HCC 2998): > 100 µM (inactive) | GI50 (SNB-78): > 100 µM (inactive)

Cc1cn(C2CC(N(C)C)C(CO)O2)c(=O)[nH]c1=O (stereo not given)
GI50 (M14): > 100 µM (inactive) | GI50 (786-0): > 100 µM (inactive) | GI50 (RPMI-8226): > 100 µM (inactive) | GI50 (SN12C): > 100 µM (inactive) | GI50 (IGROV-1): > 100 µM (inactive) | GI50 (M19-MEL): > 100 µM (inactive) | GI50 (SK-MEL-28): > 100 µM (inactive) | GI50 (OVCAR-4): > 100 µM (inactive) | GI50 (DMS-114): > 100 µM (inactive) | GI50 (NCI-H23): > 100 µM (inactive) | GI50 (HOP-62): > 100 µM (inactive) | GI50 (SR): > 100 µM (inactive) | GI50 (LXFL 529): > 100 µM (inactive) | GI50 (DMS-273): > 100 µM (inactive) | GI50 (RXF 631): > 100 µM (inactive) | GI50 (K562): > 100 µM (inactive) | GI50 (SNB-75): > 100 µM (inactive) | GI50 (NCI-H226): > 100 µM (inactive) | GI50 (SK-OV-3): > 100 µM (inactive) | GI50 (SF-539): > 100 µM (inactive) | GI50 (SK-MEL-2): > 100 µM (inactive) | GI50 (UO-31): > 100 µM (inactive) | GI50 (MOLT-4): > 100 µM (inactive) | GI50 (NCI-H522): > 100 µM (inactive) | GI50 (DLD-1): > 100 µM (inactive) | GI50 (UACC-62): > 100 µM (inactive) | GI50 (CAKI-1): > 100 µM (inactive) | GI50 (SF-268): > 100 µM (inactive) | GI50 (XF498): > 100 µM (inactive) | GI50 (HCT-116): > 100 µM (inactive) | GI50 (CCRF-CEM): > 100 µM (inactive) | GI50 (ACHN): > 100 µM (inactive) | GI50 (A498): > 100 µM (inactive) | GI50 (Malme-3M): > 100 µM (inactive) | GI50 (HL-60): > 100 µM (inactive) | GI50 (COLO 205): > 100 µM (inactive) | GI50 (HOP-92): > 100 µM (inactive) | GI50 (HCC 2998): > 100 µM (inactive) | GI50 (SNB-78): > 100 µM (inactive)
